Measured values published in doi:10.1101/2025.08.18.25333496, “A Phase 0 Window of Opportunity Trial of LB100, a Protein Phosphatase 2A Inhibitor, in Patients with Recurrent Gliomas” (medRxiv, 2025).
Read-outs that look alike come from different tables or passages of the source.

Columns and labels:
[1] = human, in vivo
Protocol: (§1) In this current trial, a single dose of LB100 was infused over two hours (+/− 15 minutes) starting two to four hours before surgery.
(§2) Blood and plasma samples for PK measurements were also performed on all participants. Samples were collected at the following time points: 1) Pre-dose; 2) End of infusion (2 hours post-start); 3) 30 minutes post LB100 infusion completion; 4) 1 hour post LB-100 infusion completion; 5) 2 hours post LB100 infusion completion; 6) 4 hours post LB100 infusion completion; 7) 8 hours post LB100 infusion completion.
(§3) LB100 concentration in clinical PK samples (plasma and tumor tissue), was quantified using a validated and robust LC-MS/MS assay developed at the NCI that used LB-105 as an internal standard. This analysis was performed blinded to tumor type. Plasma samples were pre-treated with 50 mM NaOH and tissue samples were homogenized in acetonitrile at a concentration of 100 mg/mL Briefly, samples were mixed with aqueous 10 mM triethylamine (TEA) containing internal standard followed by protein precipitation with 0.5% TEA in acetonitrile. Samples were processed alongside calibration and quality control (QC) standards, ranging from 2–1000 ng/mL (~7.5–3700 nM) and 3–10,000 pg/mg (~1.2–3700 nM) for plasma and brain tissue, respectively. […] The analyte and internal standard were chromatographically separated using a Waters Acquity UPLC BEH C18 (1.7-μm, 2.1×50mm) on a Waters Acuity UPLC system (Waters Corp., Milford, MA). A gradient mobile phase consisting of 5 mM ammonium bicarbonate (aq) and acetronitrile was flowed at a rate of 0.5 to 1 mL/min; the injection volume was 5 uL. After chromatographic separation, the compounds were eluted and detected using a AbSciex QTrap 5500 tandem mass spectrometer in positive ion electrospray mode; MRM transitions were m/z 269.1 → 101.0 and 283.2 → 115.1 for LB-100 and LB-105, respectively.
(§4) Plasma PK was analyzed via a non-compartmental approach using Phoenix WinNonlin v8.3 (Certara Corp, Cary, NC) that was validated per FDA 21CFR Part 11 Regulations. The maximum plasma concentration (Cmax) and the time of Cmax (Tmax) were reported as observed values. A rate constant of the terminal phase, λz, was calculated from the concentration-time curve using uniformly weighted least-squares as the estimation procedure and acceptance criteria of i) r^2 > 0, ii) includes >3-time points. […] Estimated pharmacokinetic parameters included half-life (t1/2; inverse of λz), volume of distribution (Vd; dose divided by product of λz and AUCINF), and clearance (CL; dose divided by AUCINF). Drug concentrations in brain tissue samples were reported and % brain penetrance was approximated via the ratio of brain tissue drug concentration to plasma drug concentrations from matched timepoints post-tissue collection.

[2] = biological target: protein phosphatase 2A (PP2A); settings: cited from earlier work
clinical [3] = settings: human, in vivo
Protocol: as §1, §2, §3, §4

clinical [4] = assay: clinical; set-up: species or system human; settings: in vivo
Protocol: Glioma tissue sampling to detect and quantify LB100 was performed post-dose in each patient, with resection time points from the end of the LB100 infusion recorded. After ensuring adequate diagnostic tissue, remaining tissue was used for PK analysis. Briefly, removed tissues were rinsed with saline immediately (to remove LB100-containing blood and avoid falsely elevated LB100 measurements), then divided, flash-frozen, and stored at −80°C for future batch analysis.
This analysis was performed blinded to tumor type.

[5] = in vivo
Protocol: After LB100 infusion and craniotomy all patients were evaluated in person 1–3 days following surgery and followed for at least 30 days after infusion of LB100 for toxicities and adverse events (AEs). All adverse events, including clinically significant abnormal findings on laboratory evaluations, regardless of severity, were followed until return to baseline or stabilization of event. Adverse events were documented from the first study intervention (study day 1) through the final safety visit (study day 30). Beyond 30 days only adverse events which were serious and related to the study intervention were recorded. The descriptions and grading scales found in the revised NCI Common Terminology Criteria for Adverse Events (CTCAE) version 5.0 were utilized for AE reporting.
During the first post-operative week after infusion with LB100, an EKG, renal function tests and liver function tests were performed. Two to three weeks following discharge from the hospital, all patients were given a physical exam and additional blood testing. At approximately 30 days post-craniotomy patients were questioned to determine whether any new AEs had occurred, and any ongoing AEs were followed up on. Prior to removal from the study, at approximately 30 days following drug infusion, all subjects completed a final safety evaluation.

[6] = set-up: method as in PMID 28039265; settings: dose level above the established safe dose; cited from earlier work
[7] = set-up: method as in Lixte Biotechnology, Investigators Brochure, unpublished; settings: ref Lixte Biotechnology, Investigators Brochure, unpublished, cited from earlier work
PP2A = tested on: PP2A; set-up: method as in Lixte Biotechnology, Investigators Brochure, unpublished; settings: mice, brain region with intact BBB; ref Lixte Biotechnology, Investigators Brochure, unpublished; cited from earlier work
[8] = one-time administration equivalent to human maximum tolerated dose

SMILES: CN1CCN(C(=O)C2C(C(=O)O)[C@H]3CC[C@@H]2O3)CC1 (some centres unmarked) [LB100]
- T1/2 [1]: 1.27 (13%) hr
- plasma concentration of LB100 at the time of biopsy, range [1]: 30.81 to 132.26 nM
- IC50 ([2]; in glial cell lines, read-out: IC50 of PP2A): 200 to 400 nM
- IC50 ([2]; previously established, read-out: minimum IC50 targeting protein phosphatase 2A): 200 nM
- Vd (clinical [3]): 21.7 L
- clearance (clinical [3]): 195 mL/min
- AUC(0-inf) (clinical [3]; AUCinf): 414 ng·h/mL
- Cmax (clinical [3]): 146 ng/mL
- Cmax (clinical [3]; range): 95 to 179 ng/mL
- half-life (clinical [3]; T1/2): 72 min
- Tmax (clinical [3]; TMAX): 2.1 h
- Tmax (clinical [3]; Tmax, range): 2.07 to 2.63 h
- AUC(0-inf) (clinical [3]; plasma drug exposure (AUCINF), range): 325 to 468 ng·h/mL
- half-life (clinical [3]; plasma half-life (T1/2), range): 65.4 to 87.6 min
- % Brain Pen (ratio of brain:plasma concentrations) (clinical [4]; human): 0.31% (159%)
- Kp (clinical [4]; human): 0.0031
- concentration at 5.68 h (clinical [4]; human): 0.51 ng/g
- concentration of LB100 in tumor tissue, range (clinical [4]; human): 0 to 0.67 nM
- percent of drug penetration into the brain, range (clinical [4]; human): 0% to 1.04%
- difference in drug levels between contrast and non-contrast regions of tumor (clinical [4]): no significant difference in drug levels
- AEs related to LB100 ([5]; human, 30 days): No AEs were thought to be related to LB100
- total number of AEs ([5]; human, 30 days): 30
- AEs rated as serious (grade 3 or 4) [5]: Four
- patients with grade 3 increases in creatinine clearance [6]: 2 of 4
- mean Cmax in plasma ([7]; animal studies): 1110~3664 ng/ml
- mean Cmax in the brain ([7]; animal studies): 17.4~43.5 ng/kg
- animals with LB100 detected in implanted tumor [7, 8]: 1 of 3
- animals with LB100 detected in normal brain and liver [7, 8]: 2 of 3
- PP2A enzymatic activity in the lateral habenula (PP2A): significantly decrease PP2A enzymatic activity
